{"source": "paper PMC4411097", "about": "“Pachymic Acid Inhibits Growth and Induces Apoptosis of Pancreatic Cancer In Vitro and In Vivo by Targeting ER Stress” (PLoS ONE, 2015)", "key": {"[1]": {"system": "MIA PaCa-2 cells", "experiment": "Apoptosis, Cell Death Detection ELISA (cytoplasmic histone-associated DNA fragments)", "type": "cell-based, human", "details": "MIA PaCa-2, PA 0–30 μM, 24 h, relative to vehicle-treated cells (=1)", "method": "(§1) Apoptosis induction in PA-treated cells was assessed by quantitation of cytoplasmic histone-associated DNA fragments and western blotting for PARP cleavage (c-PARP). The Cell Death Detection ELISA^PLUS Kit (Roche, Indianapolis, IN) was used to detect the amount of cytoplasmic histone-associated DNA fragments according to the manufacturer’s instructions and expressed relative to vehicle-treated cells (set equal to 1)."}, "[2]": {"system": "PANC-1 cells", "experiment": "Apoptosis, Cell Death Detection ELISA (cytoplasmic histone-associated DNA fragments)", "type": "cell-based, human", "details": "PANC-1, PA 0–30 μM, 24 h, relative to vehicle-treated cells (=1)", "method": "as §1"}, "[3]": {"system": "PARP cleavage (c-PARP) in MIA PaCa-2 cells", "experiment": "Western blot for PARP cleavage (c-PARP)", "type": "cell-based, human", "details": "MIA PaCa-2, PA 0–30 μM, 24 h", "method": "as §1\n(§2) PANC-1, MIA PaCa-2 cells were treated with PA (0–30 μM) for 10 min, 30 min or 24 h, respectively. Whole protein extracts isolated from cells and tumor tissues were prepared and western blot analysis with anti-cleaved PARP, anti-XBP-1s, anti-ATF6, anti-ATF4, anti-Hsp70, anti-CHOP, anti-phospho-eIF2α or anti-eIF2α antibodies were performed as previously described. Western blots were quantified with HP-Scanjet 550c and analyzed by UN-SCAN-IT software (Silk Scientific, Orem, UT). Three independent experiments were done for all the immunoblot studies and quantitative data composed of all the experiments with statistical analysis were added below the representative blot image."}, "[4]": {"system": "PARP cleavage (c-PARP) in PANC-1 cells", "experiment": "Western blot for PARP cleavage (c-PARP)", "type": "cell-based, human", "details": "PANC-1, PA 0–30 μM, 24 h", "method": "as §1, §2"}, "[5]": {"experiment": "Toxicology studies in vivo", "parameters": "species or system female nude mice", "details": "for ALP: mean ± SD (n = 10–13), control 60 ± 19; for Albumin: control 1.5 ± 0.2; for AST: control 625 ± 367", "method": "Toxicity of PA was evaluated in the 6 weeks old female nude mice (Harlan, Indianapolis, IN). The mice were acclimatized for 1 week and treated with PA (0, 25 or 50 mg kg^-1 of body weight, n = 15 per group) by i.p. 3 times per week for additional 5 weeks. The body weight was evaluated 3 times per week. At the end of the experiment, animals were euthanized by CO2 inhalation. Blood was collected and a gross pathology examination performed. Liver, spleen, kidney, lung and heart were harvested, fixed in 10% neutral-buffered formalin at 4°C for 24 h followed tissue processing overnight and then embedded in paraffin. Five-micrometer sections were stained with H&E. The levels of alkaline phosphatase (ALP), alanine aminotransferase (ALT), aspartate aminotransferase (AST), albumin and total protein were determined at the IU Health Pathology Laboratory (Indianapolis, IN)."}, "[6]": {"system": "PANC-1", "parameters": "method as in PMID 23588713", "details": "PANC-1, 24 h; read-out: IC50-24 h, inhibition of proliferation; cited from earlier work"}, "[7]": {"system": "normal pancreatic duct epithelial cells HPDE-6", "parameters": "method as in PMID 23588713", "details": "cited from earlier work"}}, "data": [{"smiles": "C=C(CC[C@@H](C(=O)O)[C@H]1[C@H](O)C[C@@]2(C)C3=C(CC[C@]12C)[C@@]1(C)CC[C@H](OC(C)=O)C(C)(C)[C@@H]1CC3)C(C)C", "note": "[PA, Pachymic acid]", "values": [{"measurement": "PA-induced apoptosis vs control", "setting": "[1]", "result": "~8", "unit": "fold"}, {"measurement": "PA-induced apoptosis vs control", "setting": "[2]", "result": "~19", "unit": "fold"}, {"measurement": "Increase in expression of PARP cleavage vs vehicle-treated control", "setting": "[3]", "result": "~4", "unit": "fold"}, {"measurement": "Increase in expression of PARP cleavage vs vehicle-treated control", "setting": "[4]", "result": "approximately 3 fold"}, {"measurement": "Liver enzyme profiles (ALP, ALT, AST, albumin, total protein)", "setting": "[5]; 25 mg kg^-1", "result": "not markedly altered"}, {"measurement": "Organ pathology by H&E (liver, kidney, spleen, lung, heart)", "setting": "[5]; 25 mg kg^-1", "result": "did not demonstrate any abnormalities"}, {"measurement": "ALP", "setting": "[5]; 25 mg kg^-1, serum", "result": "62 ± 9", "unit": "IU L^-1"}, {"measurement": "Albumin", "setting": "[5]; 25 mg kg^-1, serum, mean ± SD", "result": "1.6 ± 0.1", "unit": "g/dL"}, {"measurement": "T Protein", "setting": "[5]; 25 mg kg^-1, serum, mean ± SD, control 4.1 ± 0.5", "result": "4.5 ± 0.2", "unit": "g/dL"}, {"measurement": "ALT", "setting": "[5]; 25 mg kg^-1, serum, mean ± SD, control 123 ± 88", "result": "194 ± 193", "unit": "IU L^-1"}, {"measurement": "AST", "setting": "[5]; 25 mg kg^-1, serum, mean ± SD", "result": "531 ± 296", "unit": "IU L^-1"}, {"measurement": "Clinical signs", "setting": "[5]; 50 mg kg^-1", "result": "several signs of discomfort and impaired movement"}, {"measurement": "Organ pathology by H&E (liver, kidney, spleen, lung, heart)", "setting": "[5]; 50 mg kg^-1", "result": "obvious pathological changes in liver, kidney and spleen tissues"}, {"measurement": "ALP", "setting": "[5]; 50 mg kg^-1, serum", "result": "59 ± 11", "unit": "IU L^-1"}, {"measurement": "Albumin", "setting": "[5]; 50 mg kg^-1, serum, mean ± SD", "result": "1.6 ± 0.1", "unit": "g/dL"}, {"measurement": "AST", "setting": "[5]; 50 mg kg^-1, serum, mean ± SD", "result": "1431 ± 997", "unit": "IU L^-1"}, {"measurement": "Body weight, treatment groups vs control", "setting": "[5]; 25 and 50 mg kg^-1 i.p. 3 times per week, 5 weeks", "result": "no significant differences"}, {"measurement": "IC50", "setting": "[6]", "result": 23.5, "unit": "µM"}, {"measurement": "Effect on growth of normal pancreatic duct epithelial cells", "setting": "[7]", "result": "only slightly affects"}]}]}
